{
  "source": "patent US9468643B2",
  "about": "“PDE5 inhibitor compositions and methods for immunotherapy” (The Johns Hopkins University, priority 2005, dated 2016)",
  "key": {"tumor": {"tested_on": "tumor", "conditions": "cited from earlier work; for anti-tumor efficacy as single agent: used alone; for efficacy of antitumor vaccines when used as adjuvant: with vaccines"}, "[1]": {"tested_on": "CT26-WT or C26GM colon carcinoma", "assay": "Tumor outgrowth after s.c. challenge with CT26-WT or C26GM", "type": "in vivo, mice (BALB/c)", "conditions": "for anti-tumor efficacy in immune deficient Rag-/- mice: BALB/c Rag-/- mice; for tumor outgrowth: Balb/c mice, CT26-WT or C26GM, sildenafil 20 mg/kg/day, tadalafil 2 mg/kg/day ip, treatment alone"}, "purified CD11b+ MSCs": {"tested_on": "purified CD11b+ MSCs", "assay": "IL4Rα expression on purified CD11b+ MSCs cultured with sildenafil", "type": "cell-based, mice", "conditions": "for IL4Rα expression in cultured MSCs: sildenafil 50 μg/ml in culture; for IFN-γ mediated IL4Rα up-regulation in cultured MSCs: sildenafil 50 μg/ml, IFN-γ 25 ng/ml added on day 2"}, "[2]": {"tested_on": "tumor-derived CD11b+ MSCs / antigen-specific T cells", "assay": "MSC suppressive assay (CFSE dilution of antigen-specific T cells admixed with CD11b+ MSCs)", "type": "cell-based, mice", "conditions": "sildenafil 50 μg/ml"}, "[3]": {"tested_on": "tumor-associated MSCs (CD11b+ cells)", "assay": "In vivo sildenafil treatment of tumor-bearing mice; analysis of purified tumor-associated CD11b+ MSCs (cGMP EIA, Western blot, NO, arginase, IL4Rα flow cytometry)", "set-up": "species or system mice (BALB/c)", "conditions": "sildenafil 20 mg/kg/day in vivo"}, "[4]": {"tested_on": "PBLs (CD4+ and CD8+ T cells)", "assay": "Proliferation assay of PBLs stimulated with anti-CD3/CD28 antibody-coated beads", "type": "cell-based, human"}, "C26GM colon carcinoma [5]": {"tested_on": "C26GM colon carcinoma", "assay": "C26GM tumor outgrowth with sildenafil and anti-CD8 depleting antibody", "type": "in vivo, mice (BALB/c)"}, "C26GM colon carcinoma [6]": {"tested_on": "C26GM colon carcinoma", "assay": "Adoptive cell transfer (ACT) with sildenafil in C26GM-bearing mice, tumor size", "type": "in vivo, mice (BALB/c)"}, "[7]": {"tested_on": "tumor infiltrating CD8+ / CD4+ T cells", "assay": "Tumor-infiltrating lymphocyte number and activation in sildenafil-treated tumor-bearing mice", "type": "in vivo, mice (BALB/c)"}, "[8]": {"conditions": "human, in vivo, cited from earlier work"}},
  "note": "Entries after “also recorded” stand apart in the source; their conditions may differ. Like-named read-outs stand apart in the source and are kept apart here.",
  "data": [
    {"compound": "CC(=O)Oc1ccccc1C(=O)Oc1cccc(CO[N+](=O)[O-])c1", "note": "[nitroaspirin]", "values": [
      {"measurement": "anti-tumor efficacy as single agent", "setting": "tumor", "value": "no anti-tumor efficacy when used alone"},
      {"measurement": "anti-tumor efficacy as single agent", "setting": "tumor; listed as nitro-aspirin", "value": "ineffective as a single agent"},
      {"measurement": "efficacy of antitumor vaccines when used as adjuvant", "setting": "tumor", "value": "enhanced the preventive and therapeutic efficacy of antitumor vaccines"},
      {"measurement": "efficacy of antitumor vaccines when used as adjuvant", "setting": "tumor; listed as nitro-aspirin", "value": "augmented the anti-tumor efficacy of vaccines on established tumors"}
    ]},
    {"compound": "CCCc1nn(C)c2c(=O)[nH]c(-c3cc(S(=O)(=O)N4CCN(C)CC4)ccc3OCC)nc12", "note": "[sildenafil]", "values": [
      {"measurement": "anti-tumor efficacy in immune deficient Rag-/- mice", "setting": "[1]", "value": "lack of anti-tumor efficacy"},
      {"measurement": "tumor outgrowth", "setting": "[1]", "value": "significantly delayed tumor outgrowth"},
      {"measurement": "IL4Rα expression in cultured MSCs", "setting": "purified CD11b+ MSCs", "value": "significantly reduced"},
      {"measurement": "IL4Rα expression in cultured MSCs", "setting": "purified CD11b+ MSCs; listed as Sildenafil", "value": "down-regulates IL4Rα in cultured MSCs"},
      {"measurement": "IFN-γ mediated IL4Rα up-regulation in cultured MSCs", "setting": "purified CD11b+ MSCs", "value": "significantly reduced"},
      {"measurement": "IFN-γ mediated IL4Rα up-regulation in cultured MSCs", "setting": "purified CD11b+ MSCs; listed as Sildenafil", "value": "prevents IFN-γ mediated IL4Rα up-regulation"},
      {"measurement": "proliferation (responsiveness) of HA-specific CD4+ and CD8+ T cells in presence of tumor-derived MSCs", "setting": "[2]; BALB/c, C26GM-derived CD11b+ MSCs", "value": "almost completely restored"},
      {"measurement": "suppression of OVA-specific CD4+ T cells by MSCs from NOS2+/+ mice", "setting": "[2]; C57Bl/6 NOS2+/+, B16GM melanoma", "value": "reversed MSC suppression"},
      {"measurement": "responsiveness of OVA-specific CD4+ T cells with MSCs from NOS2-/- mice", "setting": "[2]; C57Bl/6 NOS2-/-, B16GM melanoma", "value": "did not augment T cell responsiveness"},
      {"measurement": "T cell function in the groups lacking CD11b cells", "setting": "[2]; no MSCs added", "value": "absence of a sildenafil-mediated enhancement in T cell function"},
      {"measurement": "NO production by intratumoral MSCs", "setting": "[3]; NO3-NO2 in supernatant", "value": "lower NO production"},
      {"measurement": "NOS2 expression in intratumoral MSCs", "setting": "[3]; Western blot", "value": "down-regulation of NOS2"},
      {"measurement": "Arg-1 expression and activity in intratumoral MSCs", "setting": "[3]; Western blot and arginase assay", "value": "down-regulated Arg-1"},
      {"measurement": "intracellular cGMP levels in intratumoral MSCs", "setting": "[3]; competitive enzyme immune assay, vs control group", "value": "higher intracellular cGMP levels than the control group"},
      {"measurement": "intracellular cGMP in the non-MSC population", "setting": "[3]; data not shown", "value": "No significant differences"},
      {"measurement": "IL4Rα expression on intratumoral MSCs", "setting": "[3]; flow cytometry", "value": "significantly reduced IL4Rα expression"},
      {"measurement": "proliferation of isolated CD3+ T cells", "setting": "[4]; data not shown", "value": "unable to increase T cell proliferation"},
      {"measurement": "CD4+ and CD8+ proliferation of PBLs from head and neck cancer and multiple myeloma patients", "setting": "[4]; sildenafil 50 μg/ml, 5 days", "value": "restore CD3/CD28-stimulated proliferation of PBLs; also recorded: significantly restored CD4^+ and CD8^+ proliferation in all the examined patients"},
      {"measurement": "proliferation of PBLs from healthy donors", "setting": "[4]; sildenafil 50 μg/ml, 5 days", "value": "no effect on PBLs from healthy donors"},
      {"measurement": "tumor outgrowth effect of sildenafil with anti-CD8 depleting antibody", "setting": "C26GM colon carcinoma [5]; anti-CD8 clone 2.43 on days 0, 2, 4, 6", "value": "completely abolished by CD8^+ depletion"},
      {"measurement": "tumor outgrowth", "setting": "C26GM colon carcinoma [5]; sildenafil alone", "value": "statistically significant reduction in tumor outgrowth"},
      {"measurement": "tumor outgrowth, sildenafil without adoptive transfer", "setting": "C26GM colon carcinoma [6]; sildenafil 20 mg/kg/day in drinking water", "value": "statistically significant reduction in tumor outgrowth"},
      {"measurement": "anti-tumor efficacy, sildenafil coupled with adoptive immunotherapy (ACT)", "setting": "C26GM colon carcinoma [6]; sildenafil 20 mg/kg/day plus 20×10^6 C26GM-primed splenocytes", "value": "greatest anti-tumor efficacy"},
      {"measurement": "IL-2 production (GFP) by adoptively transferred vaccine-primed CD8+ T cells in the tumor", "setting": "[7]; BALB/c-IL-2p/GFP splenocytes, sildenafil for 9 days", "value": "activated in the tumor microenvironment only with PDE5 inhibition"},
      {"measurement": "CD4+ T cell tumor infiltration", "setting": "[7]; C26GM, day 9, flow cytometry", "value": "no increase in CD4^+ T cells"},
      {"measurement": "CD8+ T cell tumor infiltration", "setting": "[7]; C26GM, day 9, flow cytometry", "value": "increase in intratumoral CD8^+ T cell infiltration"},
      {"measurement": "activation of tumor-infiltrating CD8+ T cells (CD69 and CD25)", "setting": "[7]; C26GM, day 9, flow cytometry", "value": "increased the percentage of activated T cells; also recorded: significantly activated the tumor-infiltrating CD8^+ T cells"},
      {"measurement": "CD8+ T cell tumor infiltration", "setting": "[7]; C26GM, day 9, flow cytometry, listed as Sildenafil", "value": "greater CD8^+ tumor infiltration"},
      {"measurement": "intratumoral cellular infiltration (hematoxylin-eosin staining)", "setting": "[7]; CT26WT, day 15, sildenafil 20 mg/kg/day, vs untreated controls", "value": "greater intratumoral cellular infiltration"},
      {"measurement": "tumor-infiltrating CD8+ cells specific for AH1 (tetramer positive)", "setting": "[7]; sildenafil-treated group, n=3, untreated 1.19±1.180", "value": "9.08%±0.905"}
    ]},
    {"compound": "CN1CC(=O)N2[C@H](c3ccc4c(c3)OCO4)c3[nH]c4ccccc4c3C[C@@H]2C1=O", "note": "[tadalafil]", "values": [
      {"measurement": "anti-tumor efficacy in immune deficient Rag-/- mice", "setting": "[1]", "value": "lack of anti-tumor efficacy"},
      {"measurement": "tumor outgrowth", "setting": "[1]", "value": "significantly delayed tumor outgrowth"},
      {"measurement": "apparent oral clearance (CL/F)", "setting": "[8]; po", "value": 2.48, "unit": "L/h"},
      {"measurement": "time of peak plasma concentration post-dose", "setting": "[8]; po", "value": "two"},
      {"measurement": "mean elimination half-life", "setting": "[8]", "value": "about 17.5 h"}
    ]}
  ]
}
